From patent US4230703A, “11-Oxodibenz(b,e)azepines” (priority 1977, dated 1980)

Assays:
[1] = tested on: volume of edema of left hind paw (carrageenin); test: Test on anti-inflammatory activity (carrageenin hind paw edema); format: in vivo, Wistar male rats; conditions: Rattus norvegicus, po, 3 h, p.o., read-out: Percent inhibition (average value ± standard error)
Procedure: In each group, the volumes of the left hind paw were measured by a volume differential meter (made by Ugo Basile Company), and 0.1 ml of a 1% suspension of carrageenin in distilled water was subcutaneously injected into the plantar tissues of the left hind paw. One hour later, each of the test compounds was suspended in the same vehicle as used in the test on analgesic activity and administered orally to the rats. Three hours later, the volumes of the left hind paw were again measured. The increase in volume of the left hind paw of each rat in each group (the volume of edema) was measured. The percent edema inhibition on the group administered with the test compounds based on the control group administered only with the vehicle was calculated in accordance with the following equation, and the results are shown in Table 2. [formula]

[2] = tested on: number of writhings (0.6% acetic acid, intraperitoneal); test: Test on analgesic activity (acetic acid-induced writhing); format: in vivo, mice (ddY, male); conditions: Mus musculus, po, mice; parentheses = 95% confidence limits
Procedure: Male mice (ddY) with a body weight of 18 to 22 g were used in groups each consisting of 10 mice. Each of the compounds was suspended in an aqueous solution of 0.5% of carboxymethyl cellulose and 2.0% of Tween 80, and the resulting suspension was administered orally to the mice through a tube. One hour after the administration, 0.6% acetic acid was administered intraperitoneally in an amount of 0.1 ml per 10 g of body weight, and the number of writhings which occurred in the mice during a period of 20 minutes after the administration was measured. The percent inhibition on a group administered with the test compound based on the control group administered only with the vehicle was calculated from the following equation, and the ED50 values of the test compounds were calculated from the percent inhibition in accordance with the method of Litchfield-Wilcoxon. [formula]
The parenthesized numerals show 95% confidence limits.

SD male and female rats = test: in vivo; conditions: oral
Source text: (§1) Each of the test compounds was suspended in a physiological saline solution having dissolved therein 2% of Tween 80, and orally administered through a tube to groups of SD male and female rats (male: 130 to 150 g, female: 120 to 140 g) each group consisting of 8 rats. The rats were then observed for 2 weeks.

in vivo = conditions: rat, in vivo, po
Source text: as §1

Compound | inhibition in vivo at 30 mg/kg [1] [%] | inhibition in vivo at 90 mg/kg [1] [%] | ED50 [2] [mg/kg] | also measured
CN1Cc2ccccc2C(=O)c2cc(CC(=O)O)ccc21 [A, 5,6-dihydro-5-methyl-11-oxodibenz[b,e]azepine-2-acetic acid] | 30.4 ± 4.4 | 43.9 ± 6.6 | 9 | inhibition in vivo at 10 mg/kg [1]: 28.5 ± 2.8%
CC(C(=O)O)c1ccc2c(c1)C(=O)c1ccccc1CN2C (centres unmarked) [B, 2-(5,6-dihydro-5-methyl-11-oxodibenz[b,e]azepin-2-yl)propionic acid] | 23.2 ± 3.2 | 38.6 ± 5.3 | 26 | –
CN1Cc2ccccc2C(=O)c2c(CC(=O)O)cccc21 [C, 5,6-dihydro-5-methyl-11-oxodibenz[b,e]azepine-1-acetic acid] | – | 11.4 ± 12.7 | – | inhibition in vivo at 180 mg/kg ([1]; 180 mg/kg): 28.6 ± 8.3%
CN1Cc2ccccc2C(=O)c2ccc(CC(=O)O)cc21 [Compound D, 5,6-dihydro-5-methyl-11-oxodibenz[b,e]azepine-3-acetic acid] | 36.4 ± 11.9 | – | 78 | inhibition in vivo at 10 mg/kg [1]: 26.8 ± 2.9%
CNC(=O)Cc1ccc2c(c1)C(=O)c1ccccc1CN2C [Compound E, 5,6-dihydro-5-methyl-11-oxodibenz[b,e]azepine-2-acetic acid methyl amide] | 11.3 ± 4.3 | 44.8 ± 7.5 | 46.5 | –
COC(=O)Cc1ccc2c(c1)C(=O)c1ccccc1CN2C [F, methyl 5,6-dihydro-5-methyl-11-oxodibenz[b,e]azepine-2-acetate] | 11.8 ± 3.4 | – | – | –
CN1Cc2ccccc2C(=O)c2cc(CC(=O)O)cc(Cl)c21 [G, 5,6-dihydro-4-chloro-5-methyl-11-oxodibenz[b,e]azepine-2-acetic acid] | 23.8 ± 6.9 | 35.4 ± 5.5 | – | –
CN1Cc2cc(Cl)ccc2C(=O)c2cc(CC(=O)O)ccc21 [H, 5,6-dihydro-5-methyl-8-chloro-11-oxodibenz[b,e]azepine-2-acetic acid] | 26.8 ± 7.3 | 34.9 ± 6.5 | – | –
CCN1Cc2ccccc2C(=O)c2cc(CC(=O)O)ccc21 [I, 5,6-dihydro-5-ethyl-11-oxodibenz[b,e]azepine-2-acetic acid] | 25.6 ± 5.8 | 35.1 ± 8.2 | 15.9 | inhibition in vivo at 10 mg/kg [1]: 20.2 ± 6.6%
CCCN1Cc2ccccc2C(=O)c2cc(CC(=O)O)ccc21 [J, 5,6-dihydro-5-n-propyl-11-oxodibenz[b,e]azepine-2-acetic acid] | 18.6 ± 5.2 | 30.4 ± 4.8 | 15.5 | –
CN1Cc2ccccc2C(=O)c2cc(CC(=O)OCCO)ccc21 [K, hydroxyethyl 5,6-dihydro-5-methyl-11-oxodibenz[b,e]azepine-2-acetate] | 23.5 ± 11.1 | 30.4 ± 5.5 | – | –
CN1Cc2ccccc2C(=O)c2cc(CC(=O)OCC3COC(C)(C)O3)ccc21 (centres unmarked) [L, 2,2-dimethyl-1,3-dioxolan-5-yl methyl 5,6-dihydro-5-methyl-11-oxodibenz[b,e]azepine-2-acetate] | 17.6 ± 5.1 | 33.3 ± 4 | – | –
O=C(O)Cc1ccc2c(c1)C(=O)c1ccccc1CN2 [M, 5,6-dihydro-11-oxodibenz[b,e]azepine-2-acetic acid] | 41.2 ± 5.4 | – | 5.1 | inhibition in vivo at 10 mg/kg [1]: 37.3 ± 2.4%; Minimum lethal dose (SD male and female rats; female): 720 mg/kg; Minimum lethal dose (SD male and female rats; male): 720 mg/kg; LD50 at 336 h (in vivo; female): 840 mg/kg; LD50 at 336 h (in vivo; male): 810 mg/kg
CCCCC1C(=O)N(c2ccccc2)N(c2ccccc2)C1=O [Phenylbutazone, phenylbutazone, reference compound] | 20.7 ± 2.4 | 34.2 ± 5.3 | 130 | –
